Ends that are not written are not given here.
Tests used:
[1] = system: NGF-differentiated PC-12 cells; experiment: Assessment of nuclear morphology with Hoechst-33258 after Aβ1−42 exposure; format: cell-based, Rat; settings: peptide 100 nM pre-treatment; Aβ1−42 oligomers 5 μM, 24 h; Hoechst staining; 3 separate experiments, ~1,000 cells per group
Experimental: (§1) Rat pheochromocytoma cells (PC-12 cells) were grown as previously described (Pannaccione et al., [2005], [2007]). For all the experiments, cells were seeded at low density on glass cover-slips coated with poly-L-lysine (50 μg/ml). Differentiation of PC-12 cells was achieved by treatment with neuronal growth factor (NGF) 2.5 S (50 ng/ml) for 7–9 days (Greene and Tischler, [1976]). For electrophysiological experiments, cells were seeded on glass cover-slips and used after 7–9 days of NGF. […]
Nuclear morphology was evaluated by using the fluorescent DNA-binding dye Hoechst-33258 already described (Pannaccione et al., [2007]).
(§2) The peptide used in our study was synthesized by INBIOS (Pozzuoli, Naples, Italy) using the Aβ1−42 sequence of human APP [UniProtKB-P05067 (A4_HUMAN)]. The purity of the peptide was assessed by high-performance liquid chromatography (>95% pure) and the amino acid composition was verified by mass spectrometry. […] The pre-aggregated preparation of Aβ oligomers was analyzed in SDS-PAGE using the rabbit monoclonal anti-Aβ on precast gels 4-20%. […]
Figure 7 Effect of BDS-I[1-8] on Aβ1−42-induced abnormal nuclear morphology and caspase-3 activation in NGF-differentiated PC-12 cells. […] Values are expressed as mean±SEM of 3 independent experimental sessions. […]

[2] = system: caspase-3 activation; experiment: Western blot of cleaved (activated) caspase-3 after Aβ1−42 exposure; format: cell-based, Rat; settings: peptide 100 nM, 30 min pre-treatment; Aβ1−42 oligomers 5 μM, 24 h; western blot densitometry, 3 sessions
Experimental: as §1
NGF-differentiated PC-12 and CHO cells were washed in phosphate buffered saline (PBS) and collected by gentle scraping in ice-cold RIPA buffer containing in mM: 50 Tris pH 7.4, 100 NaCl, 1 EGTA, 1 PMSF, 1 sodium orthovanadate, 1 NaF, 0.5% NP-40, and 0.2% SDS supplemented with protease inhibitor cocktail II. […] The protein content of resulting supernatant was determined using the Bradford reagent. […]
as §2

Substance: AAPAFASG [BDS-I[1-8]]
- effect on abnormal nuclear morphology induced by Aβ1−42 exposure [1]: able to significantly prevent
- effect on Aβ1−42-induced caspase-3 activation [2]: prevented

Substance: H-GSAFAPAA-OH [BDS-I[1-8scr]]
- effect on Aβ1−42-induced caspase-3 activation [2]: did not

Substance: blood depressing substance-I [BDS-I]
- effect on abnormal nuclear morphology induced by Aβ1−42 exposure [1]: able to significantly prevent

From paper PMC6629785, “Synthesis and Pharmacological Evaluation of a Novel Peptide Based on Anemonia sulcata BDS-I Toxin as a New KV3.4 Inhibitor Exerting a Neuroprotective Effect Against Amyloid-β Peptide” (Frontiers in Chemistry, 2019)
